Target: T1, CAMK1D (CaMKI delta) (Homo sapiens, UniProt Q8IU85)
T1 construct: purchased Thermo Fisher Scientific (Life Technologies) SelectScreen
Assay: SelectScreen Z'LYTE
Format: biochemical
Summary of the method: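 NU5455 was profiled across the SelectScreen Broad panel of kinase activity and binding assays. Z'LYTE reactions such as CSF1R ran at apparent Km ATP, while the Adapta CAMK1 assay used ATP listed as 10. Values are given as percent.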

T1 sequence (Q8IU85 whole entry): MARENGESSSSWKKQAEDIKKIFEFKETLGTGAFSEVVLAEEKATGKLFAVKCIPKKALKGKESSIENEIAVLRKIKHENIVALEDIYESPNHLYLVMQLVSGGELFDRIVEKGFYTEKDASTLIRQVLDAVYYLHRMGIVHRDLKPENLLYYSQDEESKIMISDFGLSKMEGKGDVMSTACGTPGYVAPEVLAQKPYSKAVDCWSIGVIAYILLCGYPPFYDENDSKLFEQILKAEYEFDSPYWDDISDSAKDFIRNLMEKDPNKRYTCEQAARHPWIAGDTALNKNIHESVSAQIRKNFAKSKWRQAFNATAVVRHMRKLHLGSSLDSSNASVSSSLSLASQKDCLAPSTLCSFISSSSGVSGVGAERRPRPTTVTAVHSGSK

In the case of `CN(C(=O)CN1CCOCC1)c1ccc2sc3c(-c4cccc5c(=O)cc(N6CC7CCC(C6)O7)oc45)cccc3c2c1` [NU5455], the inhibition at 1 µM is reported as 4.1%.
